Assay results published in US20080107661A1, “MUC1 and ABL” (Dana-Farber Cancer Institute, Inc., priority 2006, published 2008).

Experiments:
[1] = system: c-Abl; experiment: Nuclear and cytosolic c-Abl in ZR-75-1/vector and ZR-75-1/MUC1siRNA cells after CDDP (fractionation, immunoblot); format: cell-based, human
Text: Cell culture. Human HeLa cervical cancer cells, HCT116/vector (HCT116 colorectal carcinoma cells stably transfected with an empty vector), HCT116/MUC1 (HCT116 colorectal carcinoma cells stably transfected with an expression vector encoding a MUC1 polypeptide), HCT116/MUC1(Y46F) (HCT116 colorectal carcinoma cells stably transfected with an expression vector encoding a mutant MUC1 polypeptide containing an amino acid substitution at position 46 changing a tyrosine (Y) to phenylalanine (F)) colon cancer cells (Ren et al., (2002) J. Biol. Chem. 277: 17616-17622) and 293 cells were cultured in Dulbecco's modified medium with 10% heat-inactivated fetal bovine serum, 100 units/ml penicillin, 100 μg/ml streptomycin and 2 mM L-glutamine. Human ZR-75-1/vector (ZR-75-1 breast cancer cells stably transfected with an empty vector) and ZR-75-1/MUC1siRNA (ZR-75-1 breast cancer cells stably transfected with an expression vector encoding an siRNA specific for MUC1) breast cancer cells (Ren et al., (2004) Cancer Cell 5:163-175) were grown in RPMI1640 medium containing 10% heat-inactivated fetal bovine serum and antibiotics. Cells were treated with 1 μM adriamycin (ADR; Calbiochem), 100 μM cisplatin (CDDP; Sigma) or 10 μM STI571 (Gleevec; Novartis, Basel, Switzerland).
Subcellular fractionation. Nuclear fractions were prepared as described (Kharbanda et al., (1996) Cancer Res. 56:3617-3621). Cytosolic fractions were prepared as described (Hill et al., (2004) EMBO J. 23:2134-2145). Cell membrane fractions were prepared with the Plasma Membrane Extraction Kit (BioVision Research Products, Mountain View, Calif.). Mitochondria were purified as described (Ren et al., (2004) Cancer Cell 5:163-175; Ren et al., (2006) Oncogene 25:20-31).
Immunoprecipitations and immunoblot analysis. Cell lysates were prepared as described (Kharbanda et al., (1995) Nature 376:785-788); Yoshida et al., (2005) Nat. Cell Biol. 7:278-285). […] Intensity of the signals was determined by densitometric scanning. Statistical significance was determined by the Student's t-test.

[2] = system: MUC1 and c-Abl; experiment: Co-immunoprecipitation of c-Abl with MUC1 (anti-MUC1-N precipitates) after CDDP; format: cell-based, human; conditions: HCT116/MUC1 cells; CDDP, 1, 2 and 4 hours
Description: Immunoprecipitations and immunoblot analysis. Cell lysates were prepared as described (Kharbanda et al., (1995) Nature 376:785-788); Yoshida et al., (2005) Nat. Cell Biol. 7:278-285). Soluble proteins were incubated with anti-MUC1-N (Kufe et al., (1984) Hybridoma 3:223-232), anti-MUC1-C (Ab5; Neomarker, Montreal, Quebec), anti-Flag (Sigma, St. Louis, Mo.), anti-c-Abl (Ab3; Oncogene, San Diego, Calif.) or anti-14-3-3 (Abcam Inc., Cambridge, Mass.) antibodies for 2 hours at 4° C., followed by precipitation with protein G-Sepharose beads for 1 hour. Immune complexes and cell lysates (50 μg) were subjected to immunoblot analysis with anti-MUC1-N, anti-MUC1-C, anti-c-Abl (Calbiochem, San Diego, Calif.), anti-lamin B (Oncogene, San Diego, Calif.), anti-IκBα (Santa Cruz Biotechnology, Santa Cruz, Calif.), anti-GFP (BD Biosciences, San Jose, Calif.), anti-Flag (Sigma, St. Louis, […].), anti-β-actin (Sigma, St. Louis, Mo.), anti-phospho-c-Abl-[…] (Cell Signaling Technology), anti-14-3-3 (Santa Cruz Biotechnology, Santa Cruz, Calif.), anti-PKC5 (Santa Cruz Biotechnology), anti-HSP60 (BD Biosciences, San Jose, Calif.), anti-PCNA (Oncogene), or anti-calnexin (Stressgen, San Diego, Calif.) antibodies. […] Intensity of the signals was determined by densitometric scanning. Statistical significance was determined by the Student's t-test.

Question: [NH2][Pt]([NH2])([Cl])[Cl] [CDDP, cisplatin] was tested. Which “cytosolic c-Abl” value ([1]; ZR-75-1/MUC1siRNA cells) did it give?
Answer: Its value is “decreased”.

Question: What about the “increase of nuclear targeting of c-Abl” value ([1]; ZR-75-1/MUC1siRNA cells silenced for MUC1, 2 and 4 hours) of the same compound?
Answer: The value was “about 6 fold”.

Question: And the “nuclear targeting of c-Abl” value ([1]; ZR-75-1/vector cells, 2 and 4 hours)?
Answer: Its value is “no detectable targeting of c-Abl to the nucleus”.

Question: What about the “binding of MUC1 with c-Abl” value [2] of the same compound?
Answer: Its value is “increased binding of MUC1”.
